± gives the standard deviation of the averaged measurements.
Columns and labels:
Conditions in all cases: 72 h
[1] = system: Caco-2; assay: drug sensitivity score (DSS) for viability; higher = more toxic; extreme values may be limits of the assay
[2] = system: Vero E6; assay: as above
[3] = system: Calu-3; assay: as above
[4] = system: U2OS; assay: as above
[5] = system: HepG2; assay: as above
[6] = system: Caco-2; assay: relative viability EC50 (midpoint between 100% and the lowest measured viability); higher = less toxic
[7] = system: Vero E6; assay: as above
[8] = system: Calu-3; assay: as above
[9] = system: U2OS; assay: as above
[10] = system: HepG2; assay: as above
[11] = system: Caco-2; assay: cell viability relative to DMSO; higher = less toxic
[12] = system: Vero E6; assay: as above
[13] = system: Calu-3; assay: as above
[14] = system: U2OS; assay: as above
[15] = system: HepG2; assay: as above

Compound | drug sensitivity score [1] | drug sensitivity score [2] | drug sensitivity score [3] | drug sensitivity score [4] | drug sensitivity score [5] | relative viability EC50 [6] [µM] | relative viability EC50 [7] [µM] | relative viability EC50 [8] [µM] | relative viability EC50 [9] [µM] | relative viability EC50 [10] [µM] | cell viability ([11]; 1 nM) [%] | cell viability ([11]; 10 nM) [%] | cell viability ([11]; 100 nM) [%] | cell viability ([11]; 1000 nM) [%] | cell viability ([11]; 10000 nM) [%] | cell viability ([12]; 1 nM) [%] | cell viability ([12]; 10 nM) [%] | cell viability ([12]; 100 nM) [%] | cell viability ([12]; 1000 nM) [%] | cell viability ([12]; 10000 nM) [%] | cell viability ([13]; 1 nM) [%] | cell viability ([13]; 10 nM) [%] | cell viability ([13]; 100 nM) [%] | cell viability ([13]; 1000 nM) [%] | cell viability ([13]; 10000 nM) [%] | cell viability ([14]; 1 nM) [%] | cell viability ([14]; 10 nM) [%] | cell viability ([14]; 100 nM) [%] | cell viability ([14]; 1000 nM) [%] | cell viability ([14]; 10000 nM) [%] | cell viability ([15]; 1 nM) [%] | cell viability ([15]; 10 nM) [%] | cell viability ([15]; 100 nM) [%] | cell viability ([15]; 1000 nM) [%] | cell viability ([15]; 10000 nM) [%]
CCc1c(C(=O)Nc2cc(S(=O)(=O)N(CC)CC)ccc2O)[nH]c(C)c1C(C)=O [XD-14] | 0.7 | 0.2 | 0 | 0.1 | 0.5 | > 10 | > 10 | > 10 | > 10 | > 10 | 101 | 93.5 | 97.2 | 98.8 | 80.8 | 96 | 102 | 89.5 | 91.5 | 95.9 | 111 | 89.2 | 104 | 103 | 108 | 99.3 | 93 | 95.6 | 100 | 87.4 | 96.8 | 106 | 116 | 97.6 | 84.6
CC[C@@H](C)Nc1cc(C(=O)N[C@H]2C[C@H]3CC[C@@H](C2)N3c2ccc(C(=O)C3CC3)cn2)c(C)cc1C(N)=O [XL888] | 17.3 | 12.7 | 16.8 | 24.2 | 30.8 | 0.071 | 0.315 | 0.0636 | 0.0872 | 0.0285 | 104 | 94.3 | 59.3 | 32.8 | 35.2 | 104 | 104 | 99.8 | 30.4 | 52.4 | 92.4 | 101 | 53.6 | 43.1 | 38.7 | 97.2 | 104 | 43.4 | 4.3 | 3.4 | 108 | 93.4 | 4.8 | 1.3 | 1
N=C(N)S/C=C\C(=O)O [ZAPA] | 0 | 0 | 0 | 0 | 0 | > 10 | > 10 | > 10 | > 10 | > 10 | 91.1 | 96 | 91.3 | 104 | 106 | 98.3 | 97.1 | 94.8 | 95 | 106 | 83 | 103 | 101 | 103 | 95.5 | 92.8 | 97.7 | 95.6 | 100 | 101 | 96 | 95.5 | 104 | 89.3 | 102
Cc1ccc(-c2ccc(C)cn2)nc1 [abametapir] | 0 | 0 | 0 | 0 | 0 | > 10 | > 10 | > 10 | > 10 | > 10 | 95.9 | 86.7 | 79.8 | 87 | 93.3 | 103 | 104 | 101 | 93.4 | 105 | 106 | 92.1 | 95.6 | 92.6 | 96.3 | 98.8 | 96.3 | 97.8 | 96.6 | 99 | 119 | 110 | 100 | 103 | 98.9
CC(=O)O[C@@H]1CC[C@@]2(C)[C@@H](CC[C@]3(C)[C@@H]2C(=O)C=C2[C@@H]4[C@@H](C)[C@H](C)CC[C@]4(C)CC[C@]23C)[C@@]1(C)C(=O)O [acetyl-11-keto-beta-boswellic-acid] | 0 | 0 | 0 | 0 | 0 | > 10 | > 10 | > 10 | > 10 | > 10 | 94 ± 1.4 | 109 ± 2.7 | 87.8 ± 15 | 98.1 ± 18 | 96.5 ± 4.7 | 104 ± 7.3 | 94.4 ± 5 | 99.7 ± 8 | 102 ± 3.4 | 104 ± 3.3 | 93.5 ± 0.71 | 108 ± 3.8 | 102 ± 7.1 | 101 ± 22 | 96.5 ± 3.5 | 101 ± 2.5 | 98.5 ± 2.3 | 98.7 ± 3.1 | 102 ± 4.6 | 99.5 ± 1.1 | 109 ± 7.6 | 94 ± 7.4 | 106.6 ± 0.85 | 103 ± 5.4 | 101 ± 8
CC1(c2ccccc2)OC(C(=O)O)=CC1=O (stereo not given) [acifran] | 0 | 0 | 0 | 0 | 0 | > 10 | > 10 | > 10 | > 10 | > 10 | 90.8 | 95.3 | 95.8 | 105 | 98.9 | 98.9 | 96.1 | 96.9 | 98.5 | 98 | 94.9 | 93.6 | 85.5 | 95.3 | 99.6 | 103 | 97.9 | 103 | 97.4 | 104 | 90.3 | 91.9 | 97.8 | 108 | 101
C[n+]1c2cc(N)ccc2cc2ccc(N)cc21 [acriflavinium] | 8.3 | 5.2 | 4.9 | 4.5 | 14.4 | 0.594 | 1.27 | 2.62 | 3.2 | 0.516 | 97.4 | 91.1 | 91 | 62.3 | 37.4 | 96.9 | 94.8 | 103 | 82 | 49.3 | 108 | 108 | 99.3 | 94.9 | 25.8 | 98.7 | 101 | 99.7 | 100 | 18.2 | 84.1 | 85.9 | 88.6 | 33.1 | 1.2
O=C(CCCCCCCC(=O)NCCO)NCCO [adelmidrol] | 0 | 0 | 0 | 0 | 0 | > 10 | > 10 | > 10 | > 10 | > 10 | 93.1 | 98.7 | 96.2 | 104 | 98.9 | 99.2 | 98.7 | 96.4 | 96 | 107 | 94.2 | 97.1 | 87.2 | 107 | 104 | 96.3 | 103 | 94.5 | 99.5 | 103 | 112 | 94.9 | 98.6 | 94.8 | 101
C=CCN1CCCC1CNC(=O)c1cc2nn[nH]c2cc1OC (stereo not given) [alizapride] | 0 | 0 | 0 | 0 | 0 | > 10 | > 10 | > 10 | > 10 | > 10 | 94.7 | 104 | 90.1 | 98 | 107 | 92.9 | 97.3 | 94.9 | 91.4 | 105 | 89.9 | 91.4 | 86.2 | 101 | 112 | 97.6 | 99.9 | 94.5 | 106 | 100 | 108 | 94.2 | 104 | 88.8 | 103
CCOC(=O)[C@H]1O[C@@H]1C(=O)N[C@@H](CC(C)C)C(=O)NCCC(C)C [aloxistatin] | 0 | 0 | 0 | 0 | 0.2 | > 10 | > 10 | > 10 | > 10 | > 10 | 97.6 | 98.8 | 90.5 | 102 | 98 | 106 | 109 | 108 | 102 | 99.2 | 91.7 | 99.3 | 107 | 101 | 99.5 | 99.6 | 102 | 94.7 | 102 | 97.6 | 118 | 102 | 96.1 | 90.7 | 88.8
Nc1ccn([C@H]2CO[C@@H](CO)S2)c(=O)n1 [apricitabine] | 0 | 0 | 0 | 0 | 0 | > 10 | > 10 | > 10 | > 10 | > 10 | 99.9 | 91.7 | 98.9 | 103 | 105 | 93.7 | 96.9 | 99.1 | 96.4 | 104 | 101 | 101 | 98.5 | 92.5 | 102 | 98.4 | 94.2 | 96.6 | 102 | 100 | 94.9 | 105 | 104 | 99.8 | 103

From the supplement of paper PMC13380429
